# Assay results: US11485701B2, “Insect repellent compounds and compositions, and methods thereof” (Iowa State University Research Foundation, Inc., priority 2016, dated 2022)
# Entries after “also recorded” stand apart in the source; their conditions may differ.
# Legend:
# [1] = system: female Aedes aegypti (Orlando strain, 1952); assay: Minimum effective dosage testing, human skin (treated cloth patch); format: in vivo
# Protocol: The test mosquitoes were female Aedes aegypti (Orlando strain, 1952) from the colony maintained at United States Department of Agriculture-Agricultural Research Service-Center for Medical, Agricultural and Veterinary Entomology (USDA-ARS-CMAVE) in Gainesville, Fla. Pupae were obtained from the colony and newly emerged mosquitoes were maintained on 10% sugar water and kept in laboratory cages at an ambient temperature of 28±1° C. and RH of 35-60%. Host seeking behavior was pre-selected in nulliparous female mosquitoes aged 6-10 days, indicated by flight upwind towards a potential host, from stock cages using a hand-draw box and trapped in a collection trap.
# After 500 (±10%) females were collected in the trap, they were transferred to a test cage (approximately 59,000 cm^3 with dimensions 45×37.5×35 cm) and allowed to acclimatize for 17.5 (±2.5) min before testing was initiated. Just prior to the experiment, the pieces of treated cloth are removed from the vials and stapled onto card stock tabs (5×3 cm). Each piece of the cards and the assembly were hung on a drying rack using masking tape for 3-5 min. Participants in the study used latex gloves to pull a nylon stocking over their arm. A Velcro™-sealed vinyl sleeve was then placed over the forearm. […] The purpose of the nylon stocking was to produce a barrier between the dried cloth and the skin, thereby avoiding direct contact of chemical to skin. The dried cloth assembly was affixed over the opening in the sleeve and held in place with masking tape. Participants then inserted their arm with the sleeve and patch into a screened cage that contained female Ae. Aegypti mosquitoes. Tests were conducted on each control or treated patch for 1 min. A control patch (acetone solvent only, then dried) was tested prior to the start of experiments and evaluation of the same untreated control patch after every 10 tests. If 5 landings were not received on the control patch in 30 s, then tests were discontinued for 60 min. At the conclusion of testing the control patch was tested again. If five landings were not received within 30 s, the data for the replicate was discarded. When testing a patch treated with a candidate repellent, if approximately 1% or 5 mosquito bites were received during this one minute test, this compound was considered to have failed, i.e., was not repellent at that concentration. If a treated cloth patch received 0-4 bites within a minute, then it was considered as passed, i.e., repellent at that concentration of the test compound. The median concentration patch was tested in the first round and treated patches were then tested successively at higher or lower concentrations depending upon whether the previous patch failed or passed, respectively.
# The time interval between each tested patch was <90 seconds until 10 successive tests had been conducted. If appreciable, mortality had occurred during testing, the number of knocked down mosquitoes are estimated and additional female mosquitoes are added to the cage to keep the available mosquitoes at approximately 500. The estimate of the MED was the lowest concentration that passed for each candidate. Observed MED values for each candidate compound were averaged across participants and reported as a mean MED±standard error.
# Aedes aegypti = assay: Human skin testing, biting deterrence (BioGents test cage, treated nylon sleeve); format: in vivo
# Protocol: Female mosquitoes (Aedes aegypti) were reared according to the standard protocol at a temperature of 27.5±1° C., a relative humidity of 65-80% and a 12:12 hour photo period. The light period (450 Lux) was set from 7:00 to 19:00. After hatching from the eggs, larvae were kept in a water basin (30×30×10 cm) filled with a 1:1 mixture of tap- and deionized water with low oxygen content and fed with fish food flakes (Tetra Min®). Pupae were transferred to a cage (40×30×20 cm) provided with sugar solution (10% dextrose). Mosquitoes at an age of 5 to 10 days post-emergence were used for behavioral tests.
# BioGents (BG) test cages are an in-house improvement of conventional test cages for the evaluation of mosquito repellents (Obermayr et al., “A Novel Test Cage with an Air Ventilation System as an Alternative to Conventional Cages for the Efficacy Testing of Mosquito Repellents,” J. Med. Entomol. 47:1116-22 (2010) which is hereby incorporated by reference in its entirety). The cages have a volume of 27.000 cm^3 (41×41×16 cm). Four sides of a cage are made of acrylic glass, the floor is made of metal sheet, and the rear side is covered by a gauze sleeve. The floor sheet is equipped with a test window (size: 56 cm^2; 14.8×3.8 cm) for the exposure of the treated skin. In between tests, BG cages are connected to a ventilation system that provides clean, warm, and humid air (26±1° C., 65±5% R.H.) to remove remaining host odours and repellent volatiles from the air inside the cage. In the presented study, the ventilation system was not applied as mosquitoes were only tested once and then discarded. Each treated sleeve was tested on a fresh batch of mosquitoes. Each cage was filled with populations of 30 mosquitoes, lured out of their rearing cages by a natural stimulus (human hand) to ensure that only host-seeking females are used for the repellent tests
# All formulations have been stored at 4° C. Prior to testing, stock formulations were diluted v/v to final concentrations of 10% in 200 proof ethanol. […] For each test formulations, 2 pieces were prepared—one was treated, while the other one remained untreated and was worn between skin and treated nylon sleeve.
# From each test formulation 5 ml were filled into 25 ml glass flasks; immediately afterwards stockings were folded into the flasks and pushed into the liquid formulation with a clean spatula. Flasks were sealed and incubated in the fridge overnight. On the consecutive day, one of the treated nylon pieces was removed from the flasks and left to dry on a clean paper towel for at least 10 minutes or until the ethanol had evaporated. The drying process was conducted at 27° C. and 65% to 80%. One untreated nylon sleeve was attached to the forearm followed by the treated sleeve.
# Prior to a repellent efficacy test, the biting activity of the test mosquitoes was verified with the other, untreated forearm of a volunteer (wearing an untreated nylon sleeve). To keep biting pressure on the untreated skin low, a modified spacer covered with fine mosquito netting was used in control tests. Mosquitoes were still attracted to the skin odours and landed on the net, however they were not able to reach the skin and pierce it. A minimum of 10 landings had to be observed in 30 seconds during tests with Ae. aegypti. In case of lowered biting activities, 5 to 10 new mosquitoes were added to the cage or 30 new mosquitoes are used. […] The number of landing and biting mosquitoes was recorded. […]
# [2] = treated cloth patch, 1 min test, high dose 1.5 mg/cm^2
# [3] = nylon treated with 10% in ethanol, max 2 min exposure, one volunteer
smiles,measurement,setting,value
"CC(C)=CCCC(C)CC(=O)OCC(C)O (stereo not drawn) [Compound 2144, 2-hydroxypropyl citronellate]",Minimum effective dosage,[1],0.055 mg/cm²
same,Proportion to DEET,[1]; average MED relative to DEET,2.053
same,"Minimum effective dosage testing, result in words",[1]; in vivo,performed similarly to DEET
same,"Minimum Effective Dosage, Average",[1]; mean across subjects,0.039 mg/cm^2
same,"Minimum Effective Dosage, Subject 1",[1]; [2],0.047 mg/cm^2
same,"Minimum Effective Dosage, Subject 2",[1]; [2],0.047 mg/cm^2
same,"Minimum Effective Dosage, Subject 3",[1]; [2],0.023 mg/cm^2
same,Observations,Aedes aegypti; nylon treated with 10%,Repellent effects were clearly noticeable; also recorded: Visible repelient effects
same,Bites,"Aedes aegypti; nylon treated with 10% in ethanol, bites per 120 sec",0/120 sec
same,Contacts: Landing (mosquitoes sits for >3 sec),Aedes aegypti; [3],2
same,Contacts: Short touch-down,Aedes aegypti; [3],18
same,bite reduction,"Aedes aegypti; nylon treated with 10%, versus untreated nylon",(100% bite reduction)
